As usually defined, the IC50 is the concentration that inhibits the measured activity by half. A high value points to a need for much substance.

Changes are numbered by the printed parent chain. “And” between values parts separate entries of the source, which are not always exact repeats. Equal values may be shown once. Read-outs that look alike come from different tables or passages of the source.

Results on 3 compounds are retold here after US20260232643A1, “METHODS OF TREATING SOLID TUMORS WITH MITOGEN ACTIVATED PROTEIN KINASE (MAPK) PATHWAY ALTERATIONS” (Jazz Pharmaceuticals Ireland Limited, priority 2023, published 2026).

The target of data set [1] is T1, ARAF WT (Homo sapiens, UniProt P10398).
T1 sequence (P10398 1-606): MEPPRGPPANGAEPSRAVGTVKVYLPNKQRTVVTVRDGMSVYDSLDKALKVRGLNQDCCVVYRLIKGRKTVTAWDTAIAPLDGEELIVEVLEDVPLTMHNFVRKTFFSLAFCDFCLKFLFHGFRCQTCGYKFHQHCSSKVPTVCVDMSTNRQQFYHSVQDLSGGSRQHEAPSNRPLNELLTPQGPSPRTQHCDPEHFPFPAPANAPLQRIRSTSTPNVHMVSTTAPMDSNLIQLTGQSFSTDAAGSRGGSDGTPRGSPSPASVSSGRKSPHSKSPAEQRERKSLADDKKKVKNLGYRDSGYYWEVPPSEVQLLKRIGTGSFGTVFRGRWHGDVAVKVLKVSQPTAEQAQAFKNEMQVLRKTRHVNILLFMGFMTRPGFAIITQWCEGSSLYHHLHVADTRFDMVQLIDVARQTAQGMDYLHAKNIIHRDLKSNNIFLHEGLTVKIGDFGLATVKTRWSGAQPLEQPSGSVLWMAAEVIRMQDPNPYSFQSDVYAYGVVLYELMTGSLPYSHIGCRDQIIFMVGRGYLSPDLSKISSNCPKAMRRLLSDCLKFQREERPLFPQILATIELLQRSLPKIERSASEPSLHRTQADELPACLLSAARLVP
Kind of data set: PanQinase flash plate-based kinase assay.

The target of data set [2] is T2, ARAF G377R (Homo sapiens, UniProt P10398, G377R).
T2 sequence (P10398 1-606 G377R): T1 sequence (P10398 1-606) with G377R
The data set can be described thus: PanQinase flash plate-based kinase assay.

Data set [3] deals with T3, ARAF del 347_348 (Homo sapiens, UniProt P10398, DEL347-348).
T3 sequence (P10398 with tags, fused parts or gaps DEL347-348): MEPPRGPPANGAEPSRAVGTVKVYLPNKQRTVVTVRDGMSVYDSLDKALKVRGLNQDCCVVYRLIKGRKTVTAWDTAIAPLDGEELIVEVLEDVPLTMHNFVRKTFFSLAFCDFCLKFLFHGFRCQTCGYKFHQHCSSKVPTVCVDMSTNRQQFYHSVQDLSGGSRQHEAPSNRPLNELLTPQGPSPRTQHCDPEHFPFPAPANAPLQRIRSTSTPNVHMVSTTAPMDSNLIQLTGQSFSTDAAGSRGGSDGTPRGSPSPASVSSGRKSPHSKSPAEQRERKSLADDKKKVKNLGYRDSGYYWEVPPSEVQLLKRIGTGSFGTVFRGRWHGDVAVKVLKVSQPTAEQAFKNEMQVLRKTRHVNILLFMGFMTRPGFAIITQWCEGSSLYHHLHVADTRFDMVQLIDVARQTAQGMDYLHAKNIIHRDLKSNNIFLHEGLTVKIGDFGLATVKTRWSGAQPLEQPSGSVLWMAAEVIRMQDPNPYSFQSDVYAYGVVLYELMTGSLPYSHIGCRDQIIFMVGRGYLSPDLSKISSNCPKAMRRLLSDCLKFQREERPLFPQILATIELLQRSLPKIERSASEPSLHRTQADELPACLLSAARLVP
Kind of data set: PanQinase flash plate-based kinase assay.

For data set [4], the target named is T4, ARAF del 347_348 G387D (Homo sapiens, UniProt P10398, DEL347-348/G387D).
T4 sequence (P10398 with tags, fused parts or gaps DEL347-348/G387D): T3 sequence (P10398 with tags, fused parts or gaps DEL347-348) with G385D
The data set can be described thus: PanQinase flash plate-based kinase assay.

The target in data set [5] is BRAF WT (Homo sapiens, UniProt P15056). The data set can be described thus: PanQinase flash plate-based kinase assay.
Data set [6] deals with BRAF V600E (Homo sapiens, UniProt P15056, V600E). Kind of data set: PanQinase flash plate-based kinase assay.
The target of data set [7] is CRAF WT (Homo sapiens, UniProt P04049, Y340D/Y341D). The data set can be described thus: PanQinase flash plate-based kinase assay.
Data set [8] deals with Sprague Dawley rats. Particulars: 0, 10, 20, or 45 mg/kg/day once daily via oral gavage. The procedure:
(§1) Compound I was evaluated in GLP-compliant 28-day oral toxicity studies in 2 preclinical species, Sprague Dawley rats and beagle dogs. In the rat 28-day study, Compound I was administered at 0, 10, 20, or 45 mg/kg/day once daily via oral gavage. […] In the dog 28-day study, Compound I was administered at 0, 3.75, 7.5, or 15 mg/kg/day once daily via oral gavage.

The subject of data set [9] is beagle dogs. Particulars: 0, 3.75, 7.5, or 15 mg/kg/day once daily via oral gavage. As to the method: as §1
For data set [10], the system named is RAS (NRAS and KRAS) and RAF (BRAF Class 2/3) mutation driven colorectal cancer, non-small cell lung cancer, melanoma, and ovarian cancer xenografts. The data set can be described thus: Tumor growth inhibition in xenograft mice models. It is filed as in vivo. Particulars: 10 mg/kg BID, 30 mg/kg BID, 30 mg/kg QD, 100 mg/kg QD, FIGS. 1A-E.
Procedure: Vehicle was administered BID as a control.
The effect of Compound I in tumor growth inhibition was evaluated in xenograft mice models carrying pathogenic RAS (NRAS and KRAS) and RAF (BRAF Class 2/3) mutation driven colorectal cancer, non-small cell lung cancer, melanoma, and ovarian cancer.
Data set [11] has as its system metastatic NRASQ61 mutated melanoma. The format is in vivo, human. The procedure: This is a phase 1 study of Compound I in participants with advanced or metastatic solid tumors harboring alterations in the MAPK pathway. The study comprises 2 parts: dose exploration (Part A) and expansion (Part B).
Compound I (i.e., (S)-5-((3-(4-(4-fluorophenyl)-1H-imidazol-2-yl) chroman-6-yl)oxy)-3,4-dihydro-1,8-naphthyridin-2 (1H)-one) is orally administered to participants BID in a capsule formulation with unit dose strengths of 10 mg or 25 mg, taken approximately 12 hours apart in the morning and in the evening. Specifically, in Part A, Compound I is administered as a single dose on Cycle 1 Day 1, with no doses administered on Days 2 and 3 before proceeding with BID dosing on Day 4 and after.
Tumor response to therapy will be assessed by the investigator using RECIST v1.1. Tumor assessments will be made by CT/MRI/PE at Screening, on Day 1 of Cycle 3 (Day 57), and every 2 cycles (56 days) thereafter until Dayl of Cycle 13, after which tumor assessments will be every 3 cycles (84 days) and at the End of Treatment Visit. Tumor assessments will include all known or suspected disease sites. Imaging must include chest, abdomen, and pelvis CT or MRI scans. Imaging will be performed on the abdomen, chest, pelvis, and the site of the primary tumor if it is located elsewhere.
Dosing regimens: To assess the safety and efficacy of Compound I in the cancer treatment, Compound I was orally administered to participants at 20 mg BID (“bis in die”, or “twice a day”), 30 mg BID, 50 mg BID, 50 mg QD (“quaque die”, “once a day”), 75 mg BID, or 100 mg QD for a period of time. Treatment-related adverse events (TRAE, Grade≤2 and Grade ≥3) were monitored and recorded. The efficacy of Compound I in treating cancer was determined by using radiologic tumor assessment as per RECIST v1.1 (e.g., PET-CT or MRI scans).

BRAF WT, sequence (P15056 whole entry): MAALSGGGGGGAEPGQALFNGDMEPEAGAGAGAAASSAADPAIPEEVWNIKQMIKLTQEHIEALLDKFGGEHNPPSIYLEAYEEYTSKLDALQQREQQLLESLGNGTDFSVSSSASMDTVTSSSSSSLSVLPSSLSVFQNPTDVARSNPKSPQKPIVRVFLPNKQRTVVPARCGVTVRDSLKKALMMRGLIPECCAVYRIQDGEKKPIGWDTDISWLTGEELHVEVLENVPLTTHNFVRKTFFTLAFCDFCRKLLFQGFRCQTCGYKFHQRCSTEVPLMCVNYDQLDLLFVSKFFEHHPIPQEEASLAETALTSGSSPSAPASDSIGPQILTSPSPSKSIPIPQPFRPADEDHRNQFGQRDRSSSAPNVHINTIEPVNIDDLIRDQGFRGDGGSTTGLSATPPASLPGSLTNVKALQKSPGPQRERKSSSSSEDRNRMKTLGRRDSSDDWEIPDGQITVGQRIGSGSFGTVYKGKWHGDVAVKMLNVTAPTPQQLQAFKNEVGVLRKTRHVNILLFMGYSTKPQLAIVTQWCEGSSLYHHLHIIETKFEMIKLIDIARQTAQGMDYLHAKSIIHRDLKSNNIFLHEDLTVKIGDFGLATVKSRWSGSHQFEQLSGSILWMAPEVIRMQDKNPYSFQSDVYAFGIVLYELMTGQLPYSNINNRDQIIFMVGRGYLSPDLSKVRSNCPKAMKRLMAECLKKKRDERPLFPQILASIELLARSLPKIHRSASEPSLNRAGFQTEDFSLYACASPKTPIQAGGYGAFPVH
BRAF V600E, sequence (P15056 whole entry V600E): as the sequence (P15056 whole entry) above, with V600E counted along it
CRAF WT, sequence (P04049 307-648 Y340D/Y341D): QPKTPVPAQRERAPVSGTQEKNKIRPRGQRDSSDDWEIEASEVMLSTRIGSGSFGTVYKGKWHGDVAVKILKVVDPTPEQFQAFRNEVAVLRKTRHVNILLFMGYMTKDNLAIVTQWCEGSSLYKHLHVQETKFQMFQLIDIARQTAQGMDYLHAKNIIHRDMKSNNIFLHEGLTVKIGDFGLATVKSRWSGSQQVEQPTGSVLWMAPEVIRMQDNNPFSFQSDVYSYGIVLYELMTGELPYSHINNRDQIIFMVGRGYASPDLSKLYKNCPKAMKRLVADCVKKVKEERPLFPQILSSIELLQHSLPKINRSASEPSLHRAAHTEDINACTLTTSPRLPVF

Turning to `Cc1ccc(NC(=O)c2ccnc(C(F)(F)F)c2)cc1-c1cc(OCCO)nc(N2CCOCC2)c1` [Naporafenib], the IC50 amounted to 63.5 nM in [1]; 621 nM in [2]; 154 nM in data set [3]; 67.2 nM in [4]; 141 nM in data set [5]; 191 nM in [6]. In data set [7], this compound came in with an IC50 of 9.7 nM.

Consider `O=C1CCc2c(Oc3ccc4c(c3)CC(c3ncc(-c5ccc(F)cc5)[nH]3)CO4)ccnc2N1` (stereo not drawn) [Compound I, 5-((3-(4-(4-fluorophenyl)-1H-imidazol-2-yl)chroman-6-yl)oxy)-3,4-dihydro-1,8-naphthyridin-2 (1H)-one], for which the “predicted human Vss” value is given as 0.77 L/kg. Moreover, the “findings in 28-day oral toxicity study” value in data set [8] was “No mortality, and no clinical signs, changes in body weight or food consumption, ophthalmology, clinical pathology or macroscopic findings of toxicological relevance were noted”. The “findings in 28-day oral toxicity study” value in data set [9] was “No mortality, and no clinical signs, changes in body weight or food consumption, ophthalmology, ECG, clinical pathology, macroscopic or microscopic findings of toxicological relevance were noted”. Besides, the tumor growth inhibition result in [10] is listed as “dose-dependent tumor growth inhibition effect”. Also, the “reduction in target lesions” value in [11] (after 2 months, n=1, metastatic NRASQ61 mutated melanoma, 50 mg QD) was found to be 61%. Moreover, the “reduction in the target lesion” value in [11] (after 4 months (confirmation of PR), n=1, metastatic NRASQ61 mutated melanoma, 50 mg QD) was 69%. Also, the “PET avidity (PET/CT)” value in data set [11] (n=1, metastatic NRASQ61 mutated melanoma, 50 mg QD, FIG. 3) is “significant resolution of PET avidity”. Moreover, the “tumor response per RECIST v1.1” value in [11] (participant (n=1), metastatic NRASQ61 mutated melanoma, 50 mg QD oral) is reported as “partial response (PR)”. Further, the “predicted human CL” value (allometrically scaled) is 1.2 mL/min/kg. For the same compound, the IC50 in [1] (average IC50 ARAF WT, PanQinase flash plate assay, kinase dead MEK K97M substrate, 0.1-3 μM ATP) was 15.7 nM and 11.4 nM. In data set [2], this compound showed an IC50 of 142 nM. Also, the IC50 in [3] came to 68.3 nM. Moreover, the IC50 in data set [4] worked out at 20.4 nM. Also, 40.6 nM corresponded to half-maximal inhibition in [5] (IC50). The same compound displayed an IC50 in data set [6] of 40.2 nM. The same compound gave an IC50 in data set [7] of 2.3 nM.

Turning to `Cc1ccc2c(Nc3cccc(Cl)c3F)nccc2c1NC(=O)c1csc2c(N)ncnc12` [Belvarafenib], the IC50 in data set [1] turned out to be 26 nM; in data set [2], 754 nM; in data set [3] it was 60.3 nM; in data set [4], 46.5 nM; in data set [5], 97.2 nM; in data set [6] it was 193 nM. Besides, in [7], the IC50 turned out to be 9.1 nM.
